Measured values: ChEMBL document CHEMBL3885861, “Open TG-GATES”

Organism: Rattus norvegicus
Experiment: Open TG-GATES - Regimen: Daily Repeat
Format: toxicity, organism-based, Sprague-Dawley
Set-up: regimen Daily Repeat, gender Male, age 6 weeks
Settings: in vivo, po, 30 mg/kg, route gavage, dose level Middle; for KIDNEY_L / KIDNEY_R / KIDNEY_TOTAL: tissue Kidney; for AST / CRE / GLC / IP / K / LDH / RALB / TBIL / TC / TP / gamma-GTP: tissue Plasma

`CN(C)CCCN1c2ccccc2CCc2ccccc21` [IMIPRAMINE] was tested, and the TERMINAL_BW (72 h, time 3 day) was 214.6 g, the APTT (72 h, tissue Blood, time 3 day) was 16.4 s and the Bas (72 h, tissue Blood, time 3 day) was 0%. The Eos (72 h, tissue Blood, time 3 day) was 1.4%, the Fbg (72 h, tissue Blood, time 3 day) was 303.4 mg/dL and the Ht (72 h, tissue Blood, time 3 day) was 44.3%. For the same compound, the Lym (72 h, tissue Blood, time 3 day) was 83.8%, the MCHC (72 h, tissue Blood, time 3 day) was 33% and the MCV (72 h, tissue Blood, time 3 day) was 61.8 fL. For the same compound, the Mono (72 h, tissue Blood, time 3 day) was 2%, the Neu (72 h, tissue Blood, time 3 day) was 12% and the PT (72 h, tissue Blood, time 3 day) was 16.9 s. The Plat (72 h, tissue Blood, time 3 day) was 115.8 x10_4/uL, the RBC (72 h, tissue Blood, time 3 day) was 717.2 x10_4/ul and the Ret (72 h, tissue Blood, time 3 day) was 3.2%. For the same compound, the KIDNEY_L (72 h, time 3 day) was 0.9 g, the KIDNEY_R (72 h, time 3 day) was 0.9 g and the KIDNEY_TOTAL (72 h, time 3 day) was 1.8 g. The AST (72 h, time 3 day) was 58.8 IU/L, the CRE (72 h, time 3 day) was 0.2 mg/dL and the GLC (72 h, time 3 day) was 182.4 mg/dL. The IP (72 h, time 3 day) was 7.6 mg/dL, the K (72 h, time 3 day) was 4.3 meq/L and the LDH (72 h, time 3 day) was 90.4 IU/L. For the same compound, the RALB (72 h, time 3 day) was 2.6 g/dL, the TBIL (72 h, time 3 day) was 0.058 mg/dL and the TC (72 h, time 3 day) was 77 mg/dL. For the same compound, the TP (72 h, time 3 day) was 5.9 g/dL, the gamma-GTP (72 h, time 3 day) was 1 IU/L and the TERMINAL_BW ([…], time 7 day) was 244.7 g. The TERMINAL_BW ([…], time 14 day) was 294.7 g, the TERMINAL_BW ([…], time 28 day) was 362.7 g and the APTT ([…], tissue Blood, time 7 day) was 16.2 s. It also gave a Bas ([…], tissue Blood, time 7 day) of 0%, an Eos ([…], tissue Blood, time 7 day) of 1% and a Fbg ([…], tissue Blood, time 7 day) of 323.8 mg/dL. For the same compound, the Ht ([…], tissue Blood, time 7 day) was 41.6%, the Lym ([…], tissue Blood, time 7 day) was 78.6% and the MCHC ([…], tissue Blood, time 7 day) was 33%. For the same compound, the MCV ([…], tissue Blood, time 7 day) was 61.3 fL, the Mono ([…], tissue Blood, time 7 day) was 2% and the PT ([…], tissue Blood, time 7 day) was 16.1 s. For the same compound, the Plat ([…], tissue Blood, time 7 day) was 118.6 x10_4/uL, the RBC ([…], tissue Blood, time 7 day) was 678.2 x10_4/ul and the Ret ([…], tissue Blood, time 7 day) was 3.9%. For the same compound, the APTT ([…], tissue Blood, time 14 day) was 16.3 s, the Bas ([…], tissue Blood, time 14 day) was 0% and the Eos ([…], tissue Blood, time 14 day) was 1.2%. The Fbg ([…], tissue Blood, time 14 day) was 303.2 mg/dL, the Ht ([…], tissue Blood, time 14 day) was 42.5% and the Lym ([…], tissue Blood, time 14 day) was 75.8%. For the same compound, the MCHC ([…], tissue Blood, time 14 day) was 33.4%, the MCV ([…], tissue Blood, time 14 day) was 59.7 fL and the Mono ([…], tissue Blood, time 14 day) was 2.6%. It also gave a PT ([…], tissue Blood, time 14 day) of 16.3 s, a Plat ([…], tissue Blood, time 14 day) of 107.7 x10_4/uL and an RBC ([…], tissue Blood, time 14 day) of 712.4 x10_4/ul. The Ret ([…], tissue Blood, time 14 day) was 4.3%, the APTT ([…], tissue Blood, time 28 day) was 16.2 s and the Bas ([…], tissue Blood, time 28 day) was 0.2%. The Eos ([…], tissue Blood, time 28 day) was 1.2%, the Fbg ([…], tissue Blood, time 28 day) was 305.2 mg/dL and the Ht ([…], tissue Blood, time 28 day) was 45.7%. For the same compound, the Lym ([…], tissue Blood, time 28 day) was 80.4%, the MCHC ([…], tissue Blood, time 28 day) was 33.7% and the MCV ([…], tissue Blood, time 28 day) was 57.1 fL. It also gave a Mono ([…], tissue Blood, time 28 day) of 2%, a PT ([…], tissue Blood, time 28 day) of 16.3 s and a Plat ([…], tissue Blood, time 28 day) of 101.3 x10_4/uL. It also gave an RBC ([…], tissue Blood, time 28 day) of 801 x10_4/ul, a Ret ([…], tissue Blood, time 28 day) of 2.4% and a KIDNEY_L ([…], time 7 day) of 1.1 g. For the same compound, the KIDNEY_R ([…], time 7 day) was 1.1 g, the KIDNEY_TOTAL ([…], time 7 day) was 2.1 g and the KIDNEY_L ([…], time 14 day) was 1.2 g. It also gave a KIDNEY_R ([…], time 14 day) of 1.2 g, a KIDNEY_TOTAL ([…], time 14 day) of 2.4 g and a KIDNEY_L ([…], time 28 day) of 1.3 g. For the same compound, the KIDNEY_R ([…], time 28 day) was 1.3 g, the KIDNEY_TOTAL ([…], time 28 day) was 2.7 g and the AST ([…], time 7 day) was 59 IU/L. The CRE ([…], time 7 day) was 0.2 mg/dL, the GLC ([…], time 7 day) was 173 mg/dL and the IP ([…], time 7 day) was 7 mg/dL. It also gave a K ([…], time 7 day) of 4.2 meq/L, an LDH ([…], time 7 day) of 88.8 IU/L and an RALB ([…], time 7 day) of 2.5 g/dL. It also gave a TBIL ([…], time 7 day) of 0.044 mg/dL, a TC ([…], time 7 day) of 85 mg/dL and a TP ([…], time 7 day) of 5.8 g/dL. For the same compound, the gamma-GTP ([…], time 7 day) was 0.4 IU/L, the AST ([…], time 14 day) was 53.6 IU/L and the CRE ([…], time 14 day) was 0.2 mg/dL. For the same compound, the GLC ([…], time 14 day) was 170.8 mg/dL, the IP ([…], time 14 day) was 6.9 mg/dL and the K ([…], time 14 day) was 4.3 meq/L. For the same compound, the LDH ([…], time 14 day) was 100.6 IU/L, the RALB ([…], time 14 day) was 2.6 g/dL and the TBIL ([…], time 14 day) was 0.046 mg/dL. The TC ([…], time 14 day) was 88.2 mg/dL, the TP ([…], time 14 day) was 5.9 g/dL and the gamma-GTP ([…], time 14 day) was 0.6 IU/L. For the same compound, the AST ([…], time 28 day) was 53.8 IU/L, the CRE ([…], time 28 day) was 0.2 mg/dL and the GLC ([…], time 28 day) was 164.6 mg/dL. It also gave an IP ([…], time 28 day) of 7 mg/dL, a K ([…], time 28 day) of 4 meq/L and an LDH ([…], time 28 day) of 45.4 IU/L. The RALB ([…], time 28 day) was 2.7 g/dL, the TBIL ([…], time 28 day) was 0.056 mg/dL and the TC ([…], time 28 day) was 73.8 mg/dL. For the same compound, the TP ([…], time 28 day) was 6.3 g/dL and the gamma-GTP ([…], time 28 day) was 1 IU/L.
